This is an account of results in US12466813B2, “PRC1 inhibitors and methods of treatment therewith” (The Regents of the University of Michigan, priority 2018, dated 2025).

The assay concerns the target T1, RING1B-BMI1 (Homo sapiens, UniProt Q99496).
T1 sequence (Q99496 1-336): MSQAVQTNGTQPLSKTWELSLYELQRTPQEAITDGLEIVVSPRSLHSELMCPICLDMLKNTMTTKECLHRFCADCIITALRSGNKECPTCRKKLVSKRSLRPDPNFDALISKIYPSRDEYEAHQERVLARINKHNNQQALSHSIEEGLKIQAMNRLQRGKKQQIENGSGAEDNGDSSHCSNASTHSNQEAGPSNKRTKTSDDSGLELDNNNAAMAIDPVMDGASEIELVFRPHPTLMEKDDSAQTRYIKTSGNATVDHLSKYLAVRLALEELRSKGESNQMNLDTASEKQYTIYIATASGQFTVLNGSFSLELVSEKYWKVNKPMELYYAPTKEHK
T1 sequence (P35226 1-326 partner): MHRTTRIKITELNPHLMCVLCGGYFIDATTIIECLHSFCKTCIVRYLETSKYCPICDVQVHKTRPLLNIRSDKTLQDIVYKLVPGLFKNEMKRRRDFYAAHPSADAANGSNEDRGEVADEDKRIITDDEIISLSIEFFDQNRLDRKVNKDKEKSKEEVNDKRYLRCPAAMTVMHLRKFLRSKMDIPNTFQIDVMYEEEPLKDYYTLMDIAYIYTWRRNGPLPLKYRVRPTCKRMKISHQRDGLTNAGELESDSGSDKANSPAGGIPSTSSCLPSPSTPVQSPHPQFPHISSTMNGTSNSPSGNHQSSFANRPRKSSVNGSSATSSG
As to the kind of experiment: KD classes of Table A (direct binding to Ring1B-Bmi1). The note with it: class given in Table A. As for the experimental part: Experiments were conducted during development of embodiments herein to develop small molecule inhibitors of PRC1 by targeting the Ring1B-BMI1 E3 ligase. These compounds bind directly to Ring1B-Bmi1 with low-micromolar affinity and inhibit PRC1 in vitro and in cells. […] Experiments were conducted during development of embodiments herein to test COMPOUND 1 in leukemia stem cell models represented by TEX cells (Ref. 22; herein incorporated by reference in its entirety) and M9-ENL1 cells (Ref. 23; herein incorporated by reference in its entirety). […] In some embodiments, COMPOUND 1 and COMPOUND 1 analogs are find use as agents in targeting leukemia and other cancer stem cells.
The compounds listed in Table A have been synthesized and/or tested for activity in inhibiting activity of PRC1 complex, and are within the scope herein.
What is called Kd is the concentration at which binding is half-saturated. A higher Kd goes with lower affinity. Take `COc1cccc(-c2c(C(=O)O)[nH]c(-c3cc(F)cc4[nH]ccc34)c2C(C)C)c1Cl` [compound 57, 3-(2-chloro-3-methoxyphenyl)-5-(6-fluoro-1H-indol-4-yl)-4-isopropyl-1H-pyrrole-2-carboxylic acid]: the Kd is below 20 µM.

Compound `COc1ccc(-c2c(C(=O)O)[nH]c(-c3cc(F)cc4[nH]ccc34)c2C(C)C)c(F)c1` [compound 58] yielded a Kd below 20 µM.

`COc1ccc(-c2c(C(=O)O)[nH]c(-c3cc(F)cc4[nH]ccc34)c2C(C)C)c(C)c1` [compound 59]: the Kd was below 20 µM.

`CC(C)c1c(-c2cc(F)cc3[nH]ccc23)[nH]c(C(=O)O)c1-c1cc(OCC(=O)O)ccc1Cl` [compound 60]: the Kd was below 20 µM.

In the case of `CC(C)c1c(-c2cc(F)cc3[nH]ccc23)[nH]c(C(=O)O)c1-c1ccc2c(c1)OCCO2` [compound 61], the Kd was below 20 µM.

With `CC(C)c1c(-c2cc(F)cc3[nH]ccc23)[nH]c(C(=O)O)c1-c1ccc(Oc2nccs2)cc1` [compound 62], the Kd is below 20 µM.

Compound `CC(C)c1c(-c2cc(F)cc3[nH]ccc23)[nH]c(C(=O)O)c1-c1ccc(Oc2ccncc2)cc1` [compound 63] had a Kd below 20 µM.

With `CC(C)c1c(-c2cc(F)cc3[nH]ccc23)[nH]c(C(=O)O)c1-c1cccc(Oc2nccs2)c1` [compound 64], the Kd is below 20 µM.

`CCc1c(-c2cccc3[nH]ccc23)[nH]c(C(=O)O)c1-c1ccccc1Cl` [compound 65] displayed a Kd below 20 µM.

Regarding `C#CCCCCC(=O)NCCn1ccc2c(-c3c(C(=O)O)[nH]c(-c4cc(F)cc5[nH]ccc45)c3C(C)C)cccc21` [compound 66], the Kd was below 20 µM.

Turning to `C#CCCCCC(=O)NCCc1c[nH]c2cc(F)cc(-c3[nH]c(C(=O)O)c(-c4c(Cl)ccc5[nH]ccc45)c3C(C)C)c12` [compound 67], the Kd is below 20 µM.

For `C#CCCCCC(=O)NCCCCCC(=O)NCCc1c[nH]c2cc(F)cc(-c3[nH]c(C(=O)O)c(-c4c(Cl)ccc5[nH]ccc45)c3C(C)C)c12` [compound 68], the Kd was below 20 µM.

Compound `C#CCOCCOCCOCCC(=O)NCCc1c[nH]c2cc(F)cc(-c3[nH]c(C(=O)O)c(-c4c(Cl)ccc5[nH]ccc45)c3C(C)C)c12` [compound 69] had a Kd below 20 µM.

In turn, `CC(C)c1c(-c2cc(F)cc3[nH]cc(CCNC(=O)CCCCCNC(=O)c4ccc5c(c4)C(=O)OC54c5ccc(O)cc5Oc5cc(O)ccc54)c23)[nH]c(C(=O)O)c1-c1c(Cl)ccc2[nH]ccc12` [compound 70] returned a Kd below 20 µM.

For the compound `CCn1c(C(=O)O)c(-c2cc(OC)cc3[nH]ccc23)c(C(C)C)c1-c1cc(F)cc2[nH]ccc12` [compound 71], the Kd is below 20 µM.

In turn, `COCCC(=O)NCCc1c[nH]c2cc(F)cc(-c3[nH]c(C(=O)O)c(-c4c(Cl)ccc5[nH]ccc45)c3C(C)C)c12` [compound 72] gave a Kd below 20 µM.

In the case of `CCC(C)c1c(-c2cccc3[nH]ccc23)[nH]c(C(=O)O)c1-c1cccc2[nH]ccc12` (centres unmarked) [compound 73], the Kd is below 20 µM.

`CC(C)c1c(-c2cc(F)cc3[nH]ccc23)[nH]c(C(=O)O)c1-c1ccnc2[nH]ccc12` [compound 74] registered a Kd below 20 µM.

In turn, `CC(C)c1c(-c2ccnc3[nH]ccc23)[nH]c(C(=O)O)c1-c1c(Cl)ccc2[nH]ccc12` [compound 75] displayed a Kd below 20 µM.

`CC(C)c1c(-c2cccc3[nH]ccc23)cn(CC(=O)O)c1-c1cccc2[nH]ccc12` [compound 76] returned a Kd below 20 µM.

`CCc1c(-c2cccc3[nH]ccc23)[nH]c(C(=O)O)c1-c1cccc2c1ccn2CCO` [compound 77] registered a Kd of 20 to 50 µM.

As for `CCc1c(-c2cccc3[nH]ccc23)[nH]c(C(=O)O)c1CC1CCCCC1` [compound 78], the dissociation constant Kd lay in the range of 20 to 50 µM.

Consider `CCc1c(-c2cccc3[nH]ccc23)[nH]c(C(=O)O)c1Cc1ccccc1` [compound 79], for which the Kd is 20 to 50 µM.

As to `CCc1c(-c2cccc3[nH]ccc23)[nH]c(C(=O)O)c1-c1cc(N)ccc1Cl` [compound 80], the Kd lay within 20 to 50 µM.

Turning to `CCc1c(-c2cccc3[nH]ccc23)[nH]c(C(=O)O)c1-c1cc([N+](=O)[O-])ccc1Cl` [compound 81], the Kd fell in the range of 20 to 50 µM.

On to `CCc1c(-c2cccc3[nH]ccc23)[nH]c(C(=O)O)c1-c1ccccc1C(F)(F)F` [compound 82], for which the Kd lay within 20 to 50 µM.

In the case of `CCc1c(-c2cccc3[nH]ccc23)[nH]c(C(=O)O)c1-c1ccccc1C` [compound 83], the Kd lay in the range of 20 to 50 µM.

As for `CCc1c(-c2cccc3[nH]ccc23)[nH]c(C(=O)O)c1-c1cccc(Cl)c1Cl` [compound 84], the dissociation constant (Kd) lay within 20 to 50 µM.

In turn, `CCc1c(-c2cccc3[nH]ccc23)[nH]c(C(=O)O)c1-c1cccc(OC)c1` [compound 85] displayed a Kd of 20 to 50 µM.

`CCc1c(-c2cccc3[nH]ccc23)[nH]c(C(=O)O)c1-c1cccc(F)c1` [compound 86] came in with a Kd of 20 to 50 µM.

Consider `CCc1c(-c2cccc3[nH]ccc23)[nH]c(C(=O)O)c1-c1ccc(OC)cc1` [compound 87], for which the dissociation constant (Kd) lay in the range of 20 to 50 µM.

In the case of `CCc1c(-c2cccc3c2ccn3C)[nH]c(C(=O)O)c1-c1ccccc1Cl` [compound 88], the Kd was in the range of 20 to 50 µM.

In turn, `CCc1c(-c2cccc3[nH]ccc23)[nH]c(C(=O)O)c1-c1ccccc1` [compound 89] showed a dissociation constant Kd of 20 to 50 µM.

The compound `CCc1c(-c2cccc3[nH]ccc23)[nH]c(C(=O)O)c1CCc1ccccc1` [compound 90] returned a Kd of 50 to 100 µM.

As to `CCc1c(-c2cccc3[nH]ncc23)[nH]c(C(=O)O)c1-c1ccc(OC)cc1Cl` [compound 91], the equilibrium dissociation constant (Kd) is 50 to 100 µM.

With `CCc1c(-c2cccc3[nH]ccc23)[nH]c(C(=O)O)c1-c1ccc(O)cc1Cl` [compound 92], the Kd lay within 50 to 100 µM.

`Cc1c(-c2cccc3[nH]ccc23)[nH]c(C(=O)O)c1-c1ccccc1Cl` [compound 93] returned a Kd of 50 to 100 µM.

In the case of `CCc1c(-c2cccc3[nH]ccc23)[nH]c(C(=O)O)c1-c1cnccc1Cl` [compound 94], the dissociation constant (Kd) fell in the range of 50 to 100 µM.

The compound `CCCc1c(-c2cccc3[nH]ccc23)[nH]c(C(=O)O)c1-c1ccccc1Cl` [compound 95] displayed a Kd of 50 to 100 µM.

Regarding `CCc1c(-c2cccc3[nH]ccc23)[nH]c(C(=O)O)c1-c1ccccc1-c1ccccc1` [compound 96], the Kd was 50 to 100 µM.

For `CCc1c(-c2cccc3[nH]ccc23)[nH]c(C(=O)O)c1-c1cccc(Oc2ccccc2)c1` [compound 97], the Kd fell in the range of 50 to 100 µM.

On to `CCc1c(-c2cccc3[nH]ccc23)[nH]c(C(=O)O)c1-c1cccc(C)c1` [compound 99], for which the Kd was 50 to 100 µM.

In the case of `CCc1c(-c2cccc3[nH]ccc23)[nH]c(C(=O)O)c1-c1ccc(C)cc1` [compound 100], the Kd is 50 to 100 µM.

For `CCc1c(-c2cccc3c2ccn3C)[nH]c(C(=O)O)c1-c1ccccc1` [compound 101], the Kd lay in the range of 50 to 100 µM.

`CCc1c(-c2cccc3[nH]ccc23)[nH]c(C(=O)O)c1C1CCCCC1` [compound 102] returned a Kd above 100 µM.

Take `CCc1c(-c2c(OC)cccc2OC)[nH]c(C(=O)O)c1-c1ccc(OC)cc1Cl` [compound 104]: the Kd is above 100 µM.

`CCc1c(-c2cccc3[nH]ccc23)[nH]c(C(=O)O)c1-c1ccc(N)cc1` [compound 105] had a Kd above 100 µM.

`CCc1c(-c2cccc3[nH]ccc23)[nH]c(C(=O)O)c1-c1ccc(-c2ccccc2)cc1` [compound 106] displayed a dissociation constant (Kd) above 100 µM.

In the case of `CCc1c(-c2ccccc2O)[nH]c(C(=O)O)c1-c1ccccc1Cl` [compound 107], the Kd is above 100 µM.

In turn, `CCc1c(-c2cccc3c2ccn3C)[nH]c(C(=O)O)c1-c1ccc(OC)cc1` [compound 108] displayed a Kd above 100 µM.

With `CCc1c(-c2cccc3c2ccn3C)[nH]c(C(=O)O)c1-c1ccc(F)c(C)c1` [compound 109], the Kd is above 100 µM.

As to `Cn1ccc2c(-c3[nH]c(C(=O)O)c4c3CCCC4)cccc21` [compound 110], the Kd was above 100 µM.

Turning to `CCc1c(C(=O)O)[nH]c(-c2cccc3c2ccn3C)c1CC` [compound 111], the Kd is above 100 µM.

Regarding `CCc1c(C(=O)O)[nH]c(-c2cccc3[nH]ccc23)c1CC` [compound 112], the Kd is above 100 µM.

With `CCc1c(C(=O)O)[nH]c(-c2cccc3[nH]ccc23)c1-c1ccccc1` [compound 113], the equilibrium dissociation constant (Kd) is above 100 µM.

For `CCc1c(-c2cccc3[nH]ccc23)[nH]c(C(=O)O)c1-c1ccc([N+](=O)[O-])cc1` [compound 114], the Kd is above 100 µM.

The compound `O=C(O)c1[nH]c(-c2cccc3[nH]ccc23)c2c1CCCC2` [compound 115] showed a Kd above 100 µM.

The compound `Cc1cc(C(=O)O)[nH]c1-c1cccc2c1ccn2C` [compound 116] had a Kd above 100 µM.

Compound `Cc1cc(-c2cccc3c2ccn3C)[nH]c1C(=O)O` [compound 117] returned a Kd above 100 µM.
